PubChem BioAssay (NCI)
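The concentration for 50% growth inhibition is given as GI50. TGI marks complete inhibition of growth.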

Experiments:
Experiment in all cases: DTP human tumour cell line panel, 384-well format
[1] = test system: UACC-257 melanoma
[2] = test system: CCRF-CEM leukemia
[3] = test system: NCI-H322M lung
[4] = test system: MCF7 breast
[5] = test system: SN12C renal
[6] = test system: LOX IMVI melanoma
[7] = test system: RXF 393 renal
[8] = test system: UACC-62 melanoma
[9] = test system: HOP-92 NSCLC
[10] = test system: UO-31 renal
[11] = test system: HL-60(TB) leukemia
[12] = test system: HCC-2998 colon
[13] = test system: A549 NSCLC
[14] = test system: MOLT-4 leukemia
[15] = test system: MDA-MB-468 breast
[16] = test system: NCI-H460 NSCLC
[17] = test system: HCT-15 colon
[18] = test system: HS 578T breast
[19] = test system: A498 renal
[20] = test system: OVCAR-4 ovarian
[21] = test system: SF-268 CNS
[22] = test system: CAKI-1 renal
[23] = test system: EKVX NSCLC
[24] = test system: SK-MEL-28 melanoma
[25] = test system: COLO 205 colon
[26] = test system: SK-OV-3 ovarian
[27] = test system: SK-MEL-5 melanoma
[28] = test system: NCI-H226 lung
[29] = test system: MALME-3M melanoma
[30] = test system: RPMI-8226 leukemia
[31] = test system: SF-295 CNS
[32] = test system: NCI/ADR-RES ovarian
[33] = test system: PC-3 prostate
[34] = test system: MDA-MB-435 melanoma
[35] = test system: SR leukemia
[36] = test system: TK-10 renal
[37] = test system: SNB-19 CNS
[38] = test system: SW-620 colon
[39] = test system: HT29 colon
[40] = test system: BT-549 breast
[41] = test system: HCT-116 colon
[42] = test system: OVCAR-8 ovarian
[43] = test system: MDA-MB-231 breast
[44] = test system: U251 glioblastoma
[45] = test system: 786-0 renal
[46] = test system: K-562 leukemia
[47] = test system: NCI-H23 lung
[48] = test system: M14 melanoma
[49] = test system: DU-145 prostate
[50] = test system: SNB-75 CNS
[51] = test system: KM12 colon
[52] = test system: OVCAR-3 ovarian
[53] = test system: SF-539 CNS
[54] = test system: T-47D breast
[55] = test system: OVCAR-5 ovarian
[56] = test system: ACHN renal
[57] = test system: NCI-H522 lung
[58] = test system: IGROV1 ovarian
[59] = test system: HOP-62 NSCLC

## O=C1Nc2c(C(F)(F)F)cccc2[C@@]1(c1ccc(O)cc1)c1ccc(OC(F)(F)F)cc1
[1]
  GI50: 12 µM
  TGI: 24.4 µM
[2]
  GI50: 12.8 µM
  TGI: 25.5 µM
[3]
  GI50: < 0.01 µM
  TGI: < 0.01 µM
[4]
  GI50: 0.0121 µM
  TGI: 62.2 nM
[5]
  GI50: < 0.01 µM
  TGI: 21.1 nM
[6]
  GI50: 11.8 nM
  TGI: 26.3 nM
[7]
  GI50: < 0.01 µM
  TGI: < 0.01 µM
[8]
  GI50: 0.0331 µM
  TGI: 5.96 µM
[9]
  GI50: 0.0443 µM
  TGI: 20.6 µM
[10]
  GI50: 0.0151 µM
  TGI: 28.8 nM
[11]
  GI50: 2140 nM
  TGI: 3.78 µM
[12]
  GI50: < 0.01 µM
  TGI: 41.5 nM
[13]
  GI50: 34.1 nM
  TGI: 148 nM
[14]
  GI50: 10.4 µM
  TGI: 22.2 µM
[15]
  GI50: < 0.01 µM
  TGI: < 0.01 µM
[16]
  GI50: 13.7 µM
  TGI: 27.1 µM
[17]
  GI50: 18.6 nM
  TGI: 15.2 µM
[18]
  GI50: < 0.01 µM
  TGI: < 0.01 µM
[19]
  GI50: 0.022 µM
  TGI: 61.9 nM
[20]
  GI50: < 0.01 µM
  TGI: < 0.01 µM
[21]
  GI50: 2010 nM
  TGI: 18.1 µM
[22]
  GI50: 12.9 µM
  TGI: 25.5 µM
[23]
  GI50: 0.017 µM
  TGI: 55.1 nM
[24]
  GI50: 12.4 µM
  TGI: 24.9 µM
[25]
  GI50: < 0.01 µM
  TGI: < 0.01 µM
[26]
  GI50: 0.0584 µM
  TGI: 13.8 µM
[27]
  GI50: 10.9 µM
  TGI: 22.9 µM
[28]
  GI50: 0.0108 µM
  TGI: 27.6 nM
[29]
  GI50: 8.37 µM
  TGI: 20.8 µM
[30]
  GI50: 3.03 µM
  TGI: 9.54 µM
[31]
  GI50: 0.0212 µM
  TGI: 75.9 nM
[32]
  GI50: < 0.01 µM
  TGI: 22.8 nM
[33]
  GI50: 0.0123 µM
  TGI: 36.3 nM
[34]
  GI50: 8.62 µM
  TGI: 20.9 µM
[35]
  GI50: 2040 nM
  TGI: 4.15 µM
[36]
  GI50: < 0.01 µM
  TGI: < 0.01 µM
[37]
  GI50: 13.2 µM
  TGI: 26 µM
[38]
  GI50: 7.09 µM
  TGI: 19.4 µM
[39]
  GI50: 12.9 µM
  TGI: 25.7 µM
[40]
  GI50: < 0.01 µM
  TGI: < 0.01 µM
[41]
  GI50: 25.2 nM
  TGI: 16.9 µM
[42]
  GI50: < 0.01 µM
  TGI: < 0.01 µM
[43]
  GI50: 3.86 µM
  TGI: 18.9 µM
[44]
  GI50: 14.9 µM
  TGI: 28.2 µM
[45]
  GI50: 15.3 µM
  TGI: 28.7 µM
[46]
  GI50: 974 nM
  TGI: 17.7 µM
[47]
  GI50: < 0.01 µM
  TGI: 11.3 nM
[48]
  GI50: 3.36 µM
  TGI: 17.2 µM
[49]
  GI50: 31.3 nM
  TGI: 102 nM
[50]
  GI50: < 0.01 µM
  TGI: < 0.01 µM
[51]
  GI50: 14.5 nM
  TGI: 1130 nM
[52]
  GI50: < 0.01 µM
  TGI: 17 nM
[53]
  GI50: 1600 nM
  TGI: 13.7 µM
[54]
  GI50: < 0.01 µM
  TGI: < 0.01 µM
[55]
  GI50: 50.3 nM
  TGI: 20.4 µM
[56]
  GI50: 0.0203 µM
  TGI: 47 nM

## C[C@H](Nc1ncnc2nc[nH]c12)c1cc2ccc(F)cc2nc1-c1ccccn1
[1]
  GI50: > 100 µM
  TGI: > 100 µM
[2]
  GI50: 11 µM
  TGI: > 100 µM
[3]
  GI50: > 100 µM
  TGI: > 100 µM
[4]
  GI50: 21 µM
  TGI: > 100000 nM
[5]
  GI50: 12.4 µM
  TGI: > 100000 nM
[6]
  GI50: > 100000 nM
  TGI: > 100000 nM
[7]
  GI50: 12.6 µM
  TGI: > 100 µM
[8]
  GI50: 29.2 µM
  TGI: > 100 µM
[9]
  GI50: 12.7 µM
  TGI: > 100 µM
[10]
  GI50: 49.9 µM
  TGI: > 100000 nM
[11]
  GI50: 3530 nM
  TGI: 24.3 µM
[12]
  GI50: > 100 µM
  TGI: > 100000 nM
[13]
  GI50: > 100000 nM
  TGI: > 100000 nM
[14]
  GI50: 23.3 µM
  TGI: > 100 µM
[15]
  GI50: 59.2 µM
  TGI: > 100 µM
[16]
  GI50: > 100 µM
  TGI: > 100 µM
[17]
  GI50: > 100000 nM
  TGI: > 100 µM
[18]
  GI50: 24.7 µM
  TGI: > 100 µM
[19]
  GI50: 17.5 µM
  TGI: > 100000 nM
[20]
  GI50: > 100 µM
  TGI: > 100 µM
[21]
  GI50: > 100000 nM
  TGI: > 100 µM
[22]
  GI50: 8.35 µM
  TGI: 54.1 µM
[57]
  GI50: 67.4 µM
  TGI: > 100 µM
[23]
  GI50: 37.6 µM
  TGI: > 100000 nM
[24]
  GI50: > 100 µM
  TGI: > 100 µM
[25]
  GI50: > 100 µM
  TGI: > 100 µM
[26]
  GI50: 64.3 µM
  TGI: > 100 µM
[27]
  GI50: > 100 µM
  TGI: > 100 µM
[28]
  GI50: 35.7 µM
  TGI: > 100000 nM
[58]
  GI50: 21.2 µM
  TGI: 93.2 µM
[29]
  GI50: 23.6 µM
  TGI: > 100 µM
[30]
  GI50: 22.4 µM
  TGI: > 100 µM
[31]
  GI50: 29.4 µM
  TGI: > 100000 nM
[32]
  GI50: > 100 µM
  TGI: > 100000 nM
[33]
  GI50: 18.2 µM
  TGI: > 100000 nM
[34]
  GI50: > 100 µM
  TGI: > 100 µM
[35]
  GI50: 1060 nM
  TGI: 8.99 µM
[36]
  GI50: > 100 µM
  TGI: > 100 µM
[37]
  GI50: > 100 µM
  TGI: > 100 µM
[59]
  GI50: > 100 µM
  TGI: > 100 µM
[38]
  GI50: > 100 µM
  TGI: > 100 µM
[39]
  GI50: > 100 µM
  TGI: > 100 µM
[40]
  GI50: 21.1 µM
  TGI: > 100 µM
[41]
  GI50: > 100000 nM
  TGI: > 100 µM
[42]
  GI50: > 100 µM
  TGI: > 100 µM
[43]
  GI50: 53 µM
  TGI: > 100 µM
[44]
  GI50: > 100 µM
  TGI: > 100 µM
[45]
  GI50: 30.4 µM
  TGI: > 100 µM
[46]
  GI50: > 100000 nM
  TGI: > 100 µM
[47]
  GI50: > 100 µM
  TGI: > 100000 nM
[48]
  GI50: > 100 µM
  TGI: > 100 µM
[49]
  GI50: > 100000 nM
  TGI: > 100000 nM
[50]
  GI50: 24.3 µM
  TGI: > 100 µM
[51]
  GI50: > 100000 nM
  TGI: > 100000 nM
[52]
  GI50: 34.7 µM
  TGI: > 100000 nM
[53]
  GI50: > 100000 nM
  TGI: > 100 µM
[54]
  GI50: 31.2 µM
  TGI: > 100 µM
[56]
  GI50: 96.1 µM
  TGI: > 100000 nM
